This note sets out measurements from ChEMBL document CHEMBL1152104, “Synthesis of partially non-peptidic neurotensin mimetics” (Bioorg Med Chem Lett, 1994).

The target of assay [1] is T1, Neurotensin receptor type 1 (Rattus norvegicus, UniProt P20789). The assay is described as follows: Equilibrium dissociation constant at cloned rat Neurotensin receptor (NT) receptor expressed in CHO-K1 cells; 0.3-0.7 uM. It is filed as cell-based.
The next assay relates to CHO-K1. The assay is described as follows: Effect on PI turnover in intact CHO-K1 cells. Type of assay: functional, cell-based. As to conditions: Cricetulus griseus.
For assay [2], the target named is T1, Neurotensin receptor type 1. Description: Equilibrium dissociation constant at cloned rat Neurotensin receptor (NT) receptor.
The species named for another assay is Homo sapiens. Description: Concentration required to stimulate cGMP production in NIE-115 neuroblastoma cells at higher doses in 10-100 uM range. Type of assay: functional, cell-based.

T1 sequence (P20789 whole entry): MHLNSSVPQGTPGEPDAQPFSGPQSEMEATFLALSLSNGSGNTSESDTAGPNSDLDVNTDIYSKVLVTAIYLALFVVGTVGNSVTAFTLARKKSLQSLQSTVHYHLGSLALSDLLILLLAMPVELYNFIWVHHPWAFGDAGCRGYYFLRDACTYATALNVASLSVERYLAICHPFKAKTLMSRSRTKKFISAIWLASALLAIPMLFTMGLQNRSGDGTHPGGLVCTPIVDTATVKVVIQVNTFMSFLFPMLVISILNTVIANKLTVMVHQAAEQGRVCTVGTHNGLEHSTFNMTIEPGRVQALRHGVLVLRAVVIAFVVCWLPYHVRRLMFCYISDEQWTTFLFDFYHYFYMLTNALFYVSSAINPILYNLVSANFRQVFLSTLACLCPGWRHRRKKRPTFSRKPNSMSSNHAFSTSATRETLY

Take `CC[C@H](C)[C@H](NC(=O)[C@H](Cc1ccc(O)cc1)NC(=O)c1[nH]c2c(OCCCCCN)cccc2c1CCCCCCN)C(=O)N[C@@H](CC(C)C)C(=O)O`: the Kd in assay [1] came out at 300 nM. The EC50 in the assay with CHO-K1 was about 1300 nM. Molecule `CC[C@H](C)[C@H](NC(=O)[C@H](Cc1c[nH]c2ccccc12)NC(=O)c1[nH]c2c(OCCCCCN=C(N)N)cccc2c1CCCCCCN=C(N)N)C(=O)N[C@@H](CC(C)C)C(=O)O` registered a Kd in assay [1] of 300 nM.

For the molecule `CC[C@H](C)[C@H](NC(=O)[C@H](Cc1ccc(O)cc1)NC(=O)c1[nH]c2ccc(OCCCCCN)cc2c1CCCCCCN)C(=O)N[C@@H](CC(C)C)C(=O)O`, the Kd in assay [2] is about 40000 nM.

Consider `CC[C@H](C)[C@H](NC(=O)[C@H](Cc1ccc(O)cc1)NC(=O)c1[nH]c2c(OCCCCCN=C(N)N)cccc2c1CCCCCCN=C(N)N)C(=O)N[C@@H](CC(C)C)C(=O)O.O=C(O)C(F)(F)F`, for which the Kd in assay [1] is 300 nM. In the assay listed under Homo sapiens, this molecule yielded an EC50 of 19000 nM.
